Assay in all cases: NCI-60 cell line screen, 48 h
Assay [1] concerns A498 renal.
Assay [2] has as its system EKVX NSCLC.
Assay [3] deals with K-562 leukemia.
The test system of assay [4] is NCI-H460 lung.
Assay [5] relates to SF-295 CNS.
For assay [6], the system named is SK-MEL-5 melanoma.
The subject of assay [7] is SNB-19 CNS.
Assay [8] has as its system SR leukemia.
For assay [9], the system named is SW-620 colon.
The test system of assay [10] is TK-10 renal.

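Assay format: 96-well plates, 48-hour exposure. GI50 is the concentration that inhibits growth by half. TGI is the concentration that stops growth completely.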 Some results are limits rather than exact numbers.

In the case of `N#Cc1cc([N+](=O)[O-])ccc1NC(=O)C(=O)C(C(=O)/C=C/c1ccccc1)C1OC(=O)c2ccccc21` (centres undefined), the TGI in assay [1], in assay [2], in assay [3], in [4], in assay [5] and in assay [6] was above 100 µM each time. For the same molecule, the TGI in assay [7], in assay [8], in assay [9] and in assay [10] was above 100 µM throughout.

On to `COc1ccc(/C=C/c2n[nH]c3ccc(N4CCOC4=O)cc23)cc1`, for which the GI50 in assay [1] is 3.57 µM; in assay [2], 3.39 µM; in [3], 2.54 µM; in assay [4], 1.95 µM; in assay [5], 3.44 µM; in [6], 2.15 µM. For the same molecule, the GI50 in [7] was 3.12 µM; in [8], 0.461 µM; in assay [9], 1.64 µM; in [10], 3.12 µM. The TGI in assay [1] is 7.01 µM; in assay [2], 36.1 µM; in assay [3], above 100 µM; in assay [4], 11.8 µM; in [5] it was 29.2 µM; in [6] it was 5.66 µM. Also, the TGI in [7] is above 100 µM; in assay [8] it was 3.03 µM; in [9] it was 10.8 µM; in [10], 26.2 µM.

For the molecule `N#Cc1ccnc(N2C(=O)CC[C@H]2C(=O)N(c2cncc(F)c2)[C@H](C(=O)NC2CC(F)(F)C2)c2ccccc2Cl)c1`, the GI50 was 81.7 µM in assay [1]; 99.2 µM in assay [2]; above 100 µM in assay [3]; 73.3 µM in [4]; above 100 µM in assay [5]; above 100 µM in assay [6]. Moreover, the GI50 in assay [7] was above 100 µM; in assay [8] it was 62.5 µM; in assay [9], above 100 µM. In addition, the TGI in assay [1], in [2], in [3], in assay [4], in assay [5] and in assay [6] was above 100 µM in each case. In addition, the TGI in assay [7], in assay [8] and in assay [9] was above 100 µM in each case.

In the case of `C[C@@H]1C=C2C(=O)O[C@@H]3CC[C@H](C1)[C@]23O`, the TGI is 38.3 µM in assay [1]; 34.6 µM in assay [3]; 32 µM in [4]; 35.3 µM in [5]; 24 µM in assay [6]; 93.8 µM in [7]. The TGI in [8] is 19.6 µM; in assay [9], 12.8 µM. In addition, the GI50 was 2.7 µM in [3]; 13.6 µM in assay [5]; 10.9 µM in assay [6]; 22.9 µM in assay [7]; 3.51 µM in assay [8].

`Cc1[nH]c(=O)[nH]c(=O)c1CO`: the GI50 in [1], in assay [3], in assay [4], in [6], in assay [7] and in assay [8] was above 100 µM each time. Also, the GI50 in assay [9] and in [10] was above 100 µM each time. Further, the TGI in assay [1], in [3], in assay [4], in assay [6], in assay [7] and in assay [8] was above 100 µM each time. Besides, the TGI in assay [9] and in assay [10] was above 100 µM in each case.

With `Nc1ccn(C2CC(CO)C(O)C2O)c(=O)n1` (centres undefined), the TGI in assay [1], in [2], in assay [3], in assay [4], in assay [6] and in assay [7] was above 57.7 µM each time. Also, the TGI in assay [8], in assay [9] and in assay [10] was above 57.7 µM in each case.

As to `COc1cc(-c2cc(-c3nc4ccc(Cl)cc4[nH]3)[nH]n2)cc(OC)c1OC`, the GI50 in assay [1] was 2.1 µM; in assay [3], 3.04 µM; in [4] it was 3.65 µM; in [5], 2.35 µM; in assay [6], 1.62 µM; in assay [7], 7.25 µM. In addition, the GI50 in assay [8] was 3.32 µM; in assay [9] it was 4.99 µM; in assay [10], 3.52 µM. Also, the TGI in assay [1] was 11 µM; in [3], above 100 µM; in assay [4], 14 µM; in assay [5] it was 11.2 µM; in assay [6] it was 3.48 µM; in assay [7], 20.4 µM. Moreover, the TGI in [8] is 37.6 µM; in assay [9], 18.6 µM; in [10] it was 15.8 µM.

With `Nc1c(C(=O)Nc2ccccc2Cl)sc2nc3c(cc12)CCCCCC3`, the GI50 in assay [1] is 7.73 µM; in [3], 0.541 µM; in assay [4], 3.32 µM; in assay [5], 2.47 µM; in [6] it was 3.91 µM; in assay [7] it was 2.93 µM. Moreover, the GI50 was 2.18 µM in [8], 3.14 µM in assay [9] and 2.4 µM in assay [10]. For the same molecule, the TGI in assay [1] was above 100 µM; in assay [3], above 100 µM; in [4], 13.9 µM; in assay [5], 13.6 µM; in [6], above 100 µM; in assay [7] it was 20.5 µM. Also, the results for the TGI in assay [8], in assay [9] and in assay [10] were above 100 µM, above 100 µM and 6.22 µM, respectively.

For `COc1ccc2c(c1)CCC1C2CC[C@]2(C)/C(=N/OC(=O)Cc3ccccc3)CCC12` (some centres undefined), the GI50 in assay [1] was 21.6 µM; in assay [2] it was 19.4 µM; in assay [4] it was 14.6 µM; in assay [5] it was 16.7 µM; in assay [6], 12.5 µM; in [7] it was 18 µM. Moreover, the GI50 was 14.2 µM in assay [8], 35.5 µM in [9] and 37.7 µM in [10]. For the same molecule, the TGI in [1] amounted to 45.8 µM; in assay [2], 44.1 µM; in assay [4], 30.4 µM; in assay [5] it was 33.8 µM; in [6], 29.5 µM; in [7], 36.7 µM. In addition, the TGI in [8] was 33.3 µM; in assay [9], above 100 µM; in assay [10] it was 97.1 µM.

For the molecule `Nc1ccc(/C=N/Nc2ccnc3c(N)cccc23)c2cccnc12`, the GI50 in [1] is 1.79 µM; in [2], 1.63 µM; in assay [5], 1.57 µM; in assay [6], 1.78 µM; in assay [8], 0.0336 µM; in assay [10], 1.96 µM. Besides, the TGI in [1] is 3.3 µM; in assay [2], 3.34 µM; in [5] it was 3 µM; in assay [6], 3.19 µM; in assay [8] it was 0.153 µM; in assay [10], 3.56 µM.

Turning to `Cc1ccc(Cl)c(NC(=O)C(=O)C(C(=O)c2ccncc2)C2OC(=O)c3ccccc32)c1` (centres undefined), the TGI in assay [1], in [2], in [3], in assay [4], in [5] and in assay [6] was above 100 µM in each case. For the same molecule, the TGI in assay [8], in assay [9] and in assay [10] was above 100 µM each time.

Take `NCCC(O)(P(=O)(O)O)P(=O)(O)O`: the GI50 in [1], in [2], in assay [3], in [4], in assay [6] and in [7] was above 100 µM throughout. The GI50 in assay [8], in assay [9] and in [10] was above 100 µM in each case. For the same molecule, the TGI in assay [1], in [2], in assay [3], in assay [4], in assay [6] and in assay [7] was above 100 µM each time. The TGI in [8], in assay [9] and in assay [10] was above 100 µM each time.

For the molecule `COc1ccc(-c2nc(-c3nc4ccc(OC)cc4[nH]3)cc3c2[nH]c2ccccc23)cc1`, the GI50 in [1] is 3.34 µM; in assay [3], 1.52 µM; in assay [4], 2.05 µM; in assay [6], 2.18 µM; in assay [7], 3.37 µM; in [8], 4.29 µM. Further, the GI50 in assay [9] was 4.83 µM; in [10] it was 3.14 µM. The TGI in assay [1], in assay [3], in [4], in assay [6], in assay [7] and in assay [8] was above 100 µM in each case. For the same molecule, the TGI in assay [9] and in assay [10] was above 100 µM each time.

As to `CC(=O)N=c1ccc2nc3c(cc(N)c4ccccc43)oc-2c1`, the GI50 in assay [1] was 1.92 µM; in [2] it was 1.52 µM; in assay [3], 0.389 µM; in [4] it was 1.85 µM; in assay [6], 0.33 µM; in assay [7], 1.71 µM. The GI50 in assay [8] was 1.67 µM; in assay [9], 0.745 µM; in assay [10] it was 2.64 µM. For the same molecule, the TGI in [1] is 6.87 µM; in assay [2], 4.54 µM; in assay [4], 4.24 µM; in [6] it was 1.35 µM; in assay [7], 3.46 µM; in assay [8] it was above 21.2 µM. Further, the results for the TGI in assay [9] and in [10] were 2.39 µM and 6.34 µM, respectively.

In the case of `Nc1nc2nc[nH]c2c(=O)[nH]1`, the TGI in [1], in assay [2], in assay [3], in assay [4], in assay [5] and in assay [6] was above 100 µM each time. For the same molecule, the TGI in [8], in assay [9] and in [10] was above 100 µM each time.

As to `O=C(COc1ccccc1)NS(=O)(=O)c1ccccc1`, the TGI in assay [1], in assay [2], in assay [3], in [4], in assay [5] and in assay [7] was above 100 µM throughout. Moreover, the TGI in assay [8], in assay [9] and in [10] was above 100 µM throughout.

Consider `O=C(Nc1nc2ncn(CC(COc3ccccc3)OC(=O)c3ccccc3)c2c(=O)[nH]1)c1ccccc1` (centres undefined), for which the TGI in [1], in assay [2], in assay [3], in [5], in assay [6] and in assay [7] was above 100 µM throughout. Also, the TGI in assay [8] and in assay [9] was above 100 µM in each case.

`O=C(Nc1c(O)[nH]c(=S)[nH]c1=O)c1ccc2ccccc2n1`: the TGI in [1], in assay [3], in assay [4], in [5], in assay [6] and in assay [7] was above 100 µM in each case. The TGI in assay [8], in assay [9] and in assay [10] was above 100 µM in each case.

On to `CCOC(=O)/C(=C/c1ccc(C#N)cc1)N(CC)CC`, for which the TGI in assay [1] is above 100 µM; in assay [2], above 100 µM; in assay [3], above 100 µM; in assay [4], above 100 µM; in assay [5], 30 µM; in assay [6], above 100 µM. Further, the TGI in [8], in assay [9] and in assay [10] was above 100 µM each time.

For `CCCc1nc2c(C)cc(-c3nc4ccccc4n3C)cc2n1Cc1ccc(-c2ccccc2C(=O)O)cc1`, the GI50 in assay [1] was 20.4 µM; in [3] it was 23.2 µM; in assay [4], 32.5 µM; in assay [5] it was 34.4 µM; in assay [6] it was 25.8 µM; in assay [7] it was 39.4 µM. Besides, the GI50 in [8] is 28.6 µM; in assay [9], 49.3 µM; in assay [10], 55.8 µM. Also, the TGI in assay [1], in assay [3], in assay [4], in [5], in assay [6] and in [7] was above 100 µM in each case. The TGI in assay [8], in assay [9] and in [10] was above 100 µM each time.

(Values after PubChem BioAssay (NCI).)
